From patent publication EP0920315B1, “TREATMENT OF UPPER AIRWAY ALLERGIC RESPONSES WITH A COMBINATION OF HISTAMINE RECEPTOR ANTAGONISTS” (SCHERING CORPORATION, priority 1996, dated 1998)
pKi: −log10 of the molar value. Like-named read-outs stand apart in the source and are kept apart here.

Legend:
Adult cats = test: Nasal airway resistance (NAR) after aerosolized Compound 48/80 in anesthetized cats; assay type: in vivo
From the text: Adult cats are anesthetized with intraperitoneal injections of sodium pentobarbital. The right femoral artery and vein are cannulated for measurement of blood pressure with a pressure transducer, and for the administration of drugs. The animals are paralyzed with intravenous gallamine triethiodide and subsequently mechanically ventilated with room air, using an animal ventilator. After isolation of the cervical […], a cuffed endotracheal tube is advanced rostrally into the posterior nasopharynx and inflated to form an air-tight seal, allowing continuous measurement of pressure changes within the nasal cavity. The right nasal airway is occluded with dental impression compound, and humidified air is passed through the left nasal airway at about 1.7 liters per minute. By means of pressure transducers, nasal airway pressure and insufflation pressure can be derived and electronically recorded.
Nasal airway resistance (NAR) is determined by dividing the pressure within the nasal cavity (expressed in centimeters of water) by the air flow rate (expressed in liters per minute). Measurements with 18 subject animals yield an average baseline NAR of 2.6.
The known histamine releaser "Compound 48/80" (the condensation product of N-methyl-p-methoxyphenethylamine with formaldehyde, sold by Sigma Chemical Company, St. Louis, Missouri, USA), as a 1.0 percent solution in 0.9 percent aqueous saline solution, is aerosolized into the air stream for 2 minutes to induce an increased NAR. This effect is used to study the decongestant effects of various test substances, administered to the animals intravenously 10 minutes prior to the introduction of Compound 48/80. These substances include 0.9 percent aqueous saline (normal saline "Vehicle"), phenylpropanolamine hydrochloride at 1.0 mg/Kg of the free drug, thioperamide maleate at 10 mg/Kg of the free drug and chlorpheniramine maleate at 0.8 mg/Kg of the free drug, all of the drug compounds being in solution in 0.9 percent aqueous saline.
The experiment of the preceding example is repeated, but the intravenous drugs are varying amounts of thioperamide (administered as the maleate), in solution together with a constant 0.8 mg/Kg of chlorpheniramine ("CPA," administered as the maleate).
The experiment of preceding Example 1 is repeated, but the intravenous drug administered is clobenpropit in varying amounts, either alone or in solution together with a constant 0.8 mg/Kg of chlorpheniramine ("CPA," administered as the maleate).
To test the statement in U.S. Patent 5,217,986 that verongamine itself has decongestant activity, an experiment similar to that of preceding Example 1, but with a different vehicle, is conducted. The following results are obtained:
The experiment of preceding Example 3 is conducted, using loratadine as the antihistaminic compound at 3 mg/Kg, administered in a solution ("Vehicle") which is 30 percent Dimethylsulfoxide, 40 percent Ethanol and 30 percent normal saline, and using thioperamide as the H3 receptor antagonist at 10 mg/Kg.

histamine H3 receptor = biological target: T1, histamine H3 receptor (Cavia porcellus, UniProt Q9JI35); test: Guinea pig brain membrane binding assay (displacement of radiolabeled N-alpha-methylhistamine, Korte et al.)
T1 construct: determined by a guinea pig brain membrane assay; from tissue; host or cells: guinea pig brain membranes
T1 sequence (Q9JI35 whole entry): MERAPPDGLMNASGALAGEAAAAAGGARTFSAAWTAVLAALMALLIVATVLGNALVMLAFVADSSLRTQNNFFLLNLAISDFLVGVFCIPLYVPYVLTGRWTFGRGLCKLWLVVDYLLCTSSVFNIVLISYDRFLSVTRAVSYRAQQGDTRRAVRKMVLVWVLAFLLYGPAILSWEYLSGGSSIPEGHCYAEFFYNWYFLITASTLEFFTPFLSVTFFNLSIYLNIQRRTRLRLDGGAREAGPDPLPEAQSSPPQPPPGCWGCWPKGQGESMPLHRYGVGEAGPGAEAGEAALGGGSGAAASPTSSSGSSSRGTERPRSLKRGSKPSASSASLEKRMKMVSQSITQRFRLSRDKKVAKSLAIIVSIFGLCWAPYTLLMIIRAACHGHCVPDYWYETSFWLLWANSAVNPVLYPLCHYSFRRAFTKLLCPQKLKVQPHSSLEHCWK
From the text: A particularly useful screening assay measures binding to sites in guinea pig brain membranes. This test is described in detail by Korte et al., "Characterization and Tissue Distribution of H3 Histamine Receptors in Guinea Pigs by N^α -Methylhistamine," in Biochemical and Biophysical Research Communications, Vol. 168, pages 979-986 (1990), and quantifies the displacement of bound radiolabeled N" - methylhistamine from tissues by candidate compounds. Results are expressed as "Ki" values, in nanoMolar (nM) units, which values can be considered as being dissociation constants for the H3 antagonist on the H3 receptor system, or an index of antagonist affinity for the receptor. The present inventors have evidence that decongestant activity in their invention for a given H3 antagonist concentration can be predicted to increase as the Ki value obtained from the assay for an antagonist decreases. In general, Ki values less than about 200 nM are considered necessary for an agent to be useful as an H3 antagonist in the invention.
The affinity of various histamine H3 receptor antagonists for binding sites is determined by a guinea pig brain membrane assay, according to the procedure of Korte et al., Biochemical and Biophysical Research Communications, Vol. 168, pages 979-986 (1990).

[1] = Example 1, i.v. 10 minutes prior to Compound 48/80, single drugs in 0.9 percent saline: thioperamide 10 mg/Kg, chlorpheniramine 0.8 mg/Kg, phenylpropanolamine 1.0 mg/Kg, NAR = cm of water / liters per minute, Vehicle 9.1

Row | SMILES | NAR (Adult cats; [1]) | pKi (histamine H3 receptor) | also measured
1 | CCOC(=O)N1CCC(=C2c3ccc(Cl)cc3CCc3cccnc32)CC1 [Loratadine, loratadine] | – | – | NAR (Adult cats; Example 6, loratadine 3 mg/Kg, thioperamide 10 mg/Kg, vehicle 30 percent Dimethylsulfoxide, 40 percent Ethanol, 30 percent normal saline, Vehicle 12.6): 10.2
2 | CN(C)CCC(c1ccc(Cl)cc1)c1ccccn1 (stereo not drawn) [Chlorpheniramine, chlorpheniramine] | 6.0 | – | –
3 | S=C(NC1CCCCC1)N1CCC(c2cnc[nH]2)CC1 [Thioperamide, thioperamide] | 6.7 | 7.92 | –
4 | COc1ccc(C/C(=N\O)C(=O)NCCc2c[nH]cn2)cc1Br [Verongamine, verongamine] | – | – | pKi (histamine H3 receptor; guinea pig brain membranes, read-out: Ki): 6.55; NAR (Adult cats; Example 5, Verongamine 10 mg/Kg, different vehicle, Vehicle 7.8): 7.3
5 | CC(N)C(O)c1ccccc1 (stereo not drawn) [Phenylpropanolamine, phenylpropanolamine] | 2.9 | – | –
6 | NC(=NCc1ccc(Cl)cc1)SCCCc1cnc[nH]1 [Clobenpropit, clobenpropit] | – | 10.00 | NAR (Adult cats; Example 3, Clobenpropit 1.0 mg/Kg alone i.v., Vehicle 9.1): 8.5
